Measurements taken from paper PMC6571965, “Importance of the Proximity and Orientation of Ligand-Linkage to the Design of Cinnamate-GW9662 Hybrid Compounds as Covalent PPARγ Agonists” (Molecules, 2019).
Entries after “also recorded” stand apart in the source; their conditions may differ. Read-outs that look alike come from different tables or passages of the source.

Columns and labels:
[1] = biological target: T1, human PPARγ LBD (Homo sapiens, UniProt P37231); experiment: PPARγ reporter assay (GAL4 DNA-binding domain/PPARγ LBD chimera, pUAS-tk-Luc luciferase) in HepG2 cells; type: cell-based; design: expressed in transfected cells; host or cells: HepG2; settings: for EC50 / PPARγ agonist activity (in words): HepG2 cells, pGal4-human PPARγLBD, 6 h treatment; for EC50: mean ± SD, read-out: EC50 (PPARγ agonist activity); for fold more potent than previously synthesized compound 3: PPARγ agonist activity, compared with 3
T1 sequence (P37231 238-503 limits assumed): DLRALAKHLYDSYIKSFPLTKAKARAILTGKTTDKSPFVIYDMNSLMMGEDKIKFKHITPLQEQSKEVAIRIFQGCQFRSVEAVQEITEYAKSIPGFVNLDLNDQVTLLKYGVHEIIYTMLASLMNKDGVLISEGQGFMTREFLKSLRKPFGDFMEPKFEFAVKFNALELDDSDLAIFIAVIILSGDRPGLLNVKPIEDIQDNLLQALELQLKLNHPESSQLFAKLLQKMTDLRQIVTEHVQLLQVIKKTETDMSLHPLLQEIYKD
Description: PPARγ agonist activity was assessed by expression of a GAL4 DNA-binding domain/PPARγ LBD chimera protein using the plasmid pGAL4- PPARγ LBD and the luciferase reporter plasmid pUAS-tk-Luc containing the target sequence of GAL4 [20]. […] This supports our hypothesis that close proximity between the two fragments contributes to the improvement of binding affinity.
The PPARγ reporter assay was carried out as previously reported with slight modifications. pGal4-human PPARγLBD, pUAS-tk-luc and Renilla luciferase transfection control vector (pGL4.74, Promega, Madison, WI, USA) were transfected into HepG2 cells using Hily-max (Dojindo, Kumamoto, Japan) and PPARγ agonist activity was determined from the luciferase activity using the Dual-Luciferase Reporter Assay System (Promega) according to the manufacturer’s protocol.
Figure 2 Transactivation potentials of PPARγ by 4a, b, c, d, e, and 16. The luciferase reporter assay was performed in HepG2 cells transiently cotransfected with pGal4-humanPPARγLBD plasmid, pUAS-tk-Luc reporter, and pGL4.74[hRluc/TK] (Promega). Firefly luciferase activities were normalized to Renilla luciferase activities. Vehicle control data are denoted as 1. […] All the results are presented as the mean ± SD (n = 3) of three independent experiments. * p < 0.001, compared with vehicle control.

[2] = biological target: T2, recombinant PPARγ LBD (Cys285) (Homo sapiens, UniProt P37231); experiment: Rhodamine-maleimide assay for covalent modification of Cys285; type: binding; settings: PPARγ LBD 2 µM, 30 min incubation at room temperature
T2 construct: recombinant PPARγ LBD (2 µM) was mixed with various ligands; gift of Dr. Takuji Oyama (Yamanashi University)
T2 sequence (P37231 238-503 limits assumed): T1 sequence (P37231 238-503 limits assumed)
Excerpt: (§1) To assess the interactions between the receptor and the synthesized compounds, we initially validated the formation of a covalent bond with Cys285 by performing a rhodamine-maleimide assay. This assay can detect the presence of a covalent modification of Cys285 in the PPARγ LBD because it has only one cysteine residue in its sequences. […] To further confirm the covalent bonding of the synthesized compounds, we conducted proteolytic mapping studies via mass spectroscopy using 4a as a representative compound and 4b as a negative control. The complexes between recombinant PPARγ LBD and the test compounds were trypsinized and subjected to MALDI-TOF MS. Covalent binding of 4a (mass of 466.1 Da) to the PPARγ LBD is assumed to result in a mass change of 431.1 Da for the modified tryptic peptide. By comparison of the tryptic digests of PPARγ, with and without 4a, a candidate peptide containing the attachment site for 4a ([…], m/z 499.7492 Da) was detected by its mass shift to m/z 714.8080 Da (detected as double charged; Figure 3B).
Rhodamine-Maleimide assay was performed as previously described. Briefly, recombinant PPARγ LBD (2 µM) was mixed with various ligands at the indicated concentrations in 20 mM Tris-HCl, pH8.0, 150 mM NaCl, and 1 mM tris(2-carboxylethyl)phosphine (TCEP). The mixture was incubated for 30 min at room temperature. SDS was added to the reaction mixture to a final concentration of 0.5%, followed by rhodamine red C2 maleimide (Life Technologies, Carlsbad, CA, USA) at a final concentration of 1 mM. After incubation at room temperature for 30 min, samples were treated with SDS-PAGE sample buffer containing β-mercaptoethanol for 30 min at 55 °C and were separated by SDS-PAGE. Fluorescent signals were visualized using the LAS1000 plus image analyzer (Fujifilm, Tokyo, Japan).
. (B), (C) Detection of covalent binding of 4a to Cys285 in the PPARγ LBD by ESI-MS/MS analysis. Fragmentation pattern of peptide […] was obtained from the trypsin digest. The calculated y- and b-ions of this peptide with observed ions underlined and the native or modified peptides detected in chromatogram are shown.

[3] = biological target: T2, recombinant PPARγ LBD (Cys285); experiment: Proteolytic mapping by MS/MS of ligand modification of PPARγ LBD; type: binding; settings: PPARγ LBD 20 µM, ligand 40 µM, 30 min, trypsin digest
Excerpt: as §1
LC-MS/MS detection was performed as previously described. Briefly, purified recombinant PPARγ LBD (20 µM) was incubated with ligands (40 µM) in 20 mM Tris-HCl, pH8.0, 150 mM NaCl, and 1 mM TCEP for 30 min. […]
. […] The calculated y- and b-ions of this peptide with observed ions underlined and the native or modified peptides detected in chromatogram are shown.

[4] = biological target: T1, human PPARγ LBD; design: expressed in transfected cells; host or cells: HepG2; method as in PMID 26414848; settings: previously synthesized compound; read-out: EC50 value (partial agonistic activity); cited from earlier work
[5] = biological target: T3, human PPARγ LBD C285A mutant (Homo sapiens, UniProt P37231, C313A); experiment: Luciferase reporter gene assay with C285A mutant of pGal4-humanPPARγLBD in HepG2 cells; settings: 6 h, troglitazone 10 μM
T3 sequence (P37231 232-505 C313A): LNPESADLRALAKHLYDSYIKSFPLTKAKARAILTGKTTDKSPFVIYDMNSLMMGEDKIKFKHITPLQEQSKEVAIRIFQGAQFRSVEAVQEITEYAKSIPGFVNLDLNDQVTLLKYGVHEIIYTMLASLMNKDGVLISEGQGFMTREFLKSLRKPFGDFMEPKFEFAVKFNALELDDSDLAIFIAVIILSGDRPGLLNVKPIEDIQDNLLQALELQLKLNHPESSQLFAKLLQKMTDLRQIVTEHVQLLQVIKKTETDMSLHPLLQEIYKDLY
Description: (§2) We first examined the relationship between covalent binding to the Cys285 residue and the agonist activity by a luciferase reporter gene assay using PPARγ mutants where the cysteine was substituted to an alanine (C285A). […] To examine this idea, we monitored the levels of luciferase activity upon withdrawal of the synthesized agonists.

[6] = biological target: T1, human PPARγ LBD; experiment: Luciferase reporter assay after ligand withdrawal in HepG2 cells; settings: 6 h treatment (troglitazone 10 μM; 4a, 4c 100 nM), washed, 24 h after withdrawal
Description: as §2

| Compound | EC50 [1] [nM] | PPARγ agonist activity (in words) [1] | fluorescence of rhodamine-labeled PPARγ LBD (covalent bond with Cys285) [2] | further results |
| --- | --- | --- | --- | --- |
| CCOC(=O)CCc1ccc(Oc2cccc(NC(=O)c3cc([N+](=O)[O-])ccc3Cl)c2)cc1 [Compound 4e, Ethyl 3-{4-[3-(2-chloro-5-nitrobenzamido)phenoxy]phenyl}propanoate] | 2.54 ± 1.3 | – | – | – |
| CCOC(=O)/C=C/c1ccc(Oc2cccc(NC(=O)c3cccc([N+](=O)[O-])c3)c2)cc1 [Compound 4b, (E)-Ethyl 3-{4-[3-(3-nitrobenzamido)phenoxy]phenyl}acrylate] | – | had no agonist activity | decrease of fluorescence was not observed | covalent adduct with Cys285 detected by mass shift of tryptic peptide IFQGCQFR [3]: these mass shifts were not exhibited |
| O=C(Nc1ccccc1)c1cc([N+](=O)[O-])ccc1Cl [GW9662] | – | – | decreased | – |
| CCOC(=O)/C=C/c1ccc(OCCc2cccc(NC(=O)c3cc([N+](=O)[O-])ccc3Cl)c2)cc1 [Compound 3] | – | – | – | EC50 [4]: 14 nM |
| CCOC(=O)/C=C/c1ccc(Oc2ccccc2NC(=O)c2cc([N+](=O)[O-])ccc2Cl)cc1 [Compound 4c, (E)-Ethyl 3-{4-[2-(2-chloro-5-nitrobenzamido)phenoxy]phenyl}acrylate] | 4.11 ± 0.13 | – | decrease of labeled PPARγ LBD was also found | transactivation in the C285A mutant [5]: did not show the transactivation; fold more potent than previously synthesized compound 3 [1]: about 3 fold; luciferase transcription activity after withdrawal of ligand [6]: sustained transcription activity 24 h after withdrawal |
| CCOC(=O)/C=C/c1ccc(OCCc2ccc(NC(=O)c3cc([N+](=O)[O-])ccc3Cl)cc2)cc1 [Compound 16, (E)-Ethyl 3-(4-{2-[4-(2-chloro-5-nitrobenzamido)phenyl]ethoxy}phenyl)acrylate] | – | disappearance of activity; also recorded: exhibited no agonistic activity | showed the decrease of fluorescence | – |
| CCOC(=O)/C=C/c1ccc(Oc2ccc(NC(=O)c3cc([N+](=O)[O-])ccc3Cl)cc2)cc1 [Compound 4d, (E)-Ethyl 3-{4-[4-(2-chloro-5-nitrobenzamido)phenoxy]phenyl}acrylate] | – | completely abolished; also recorded: exhibited no agonistic activity | showed the decrease of fluorescence | – |
| CCOC(=O)/C=C/c1ccc(Oc2cccc(NC(=O)c3cc([N+](=O)[O-])ccc3Cl)c2)cc1 [Compound 4a, (E)-Ethyl 3-{4-[3-(2-chloro-5-nitrobenzamido)phenoxy]phenyl}acrylate] | 5.13 ± 0.45 | – | decrease of labeled PPARγ LBD was also found | transactivation in the C285A mutant [5]: did not show the transactivation; fold more potent than previously synthesized compound 3 [1]: about 3 fold; luciferase transcription activity after withdrawal of ligand [6]: sustained transcription activity 24 h after withdrawal; covalent adduct with Cys285 detected by mass shift of tryptic peptide IFQGCQFR [3]: identified as the Cys285 residue |
